Where a name gives a salt, the structure may show the parent alone. Residues, ends and D or L forms follow the SMILES beside them. *: point of attachment. Tfa = O=C(C(F)(F)F)*
Columns and labels:
[1] = target: T1, NAD-dependent protein deacetylase sirtuin-2 (Homo sapiens, UniProt Q8IXJ6); experiment: Inhibition of recombinant human SIRT2 deacylation activity using Fluor de Lys Sirt2 as substrate measured at 5 mins interval for 30 mins in presence of NAD+ by fluorescence assay
T1 sequence (Q8IXJ6 whole entry): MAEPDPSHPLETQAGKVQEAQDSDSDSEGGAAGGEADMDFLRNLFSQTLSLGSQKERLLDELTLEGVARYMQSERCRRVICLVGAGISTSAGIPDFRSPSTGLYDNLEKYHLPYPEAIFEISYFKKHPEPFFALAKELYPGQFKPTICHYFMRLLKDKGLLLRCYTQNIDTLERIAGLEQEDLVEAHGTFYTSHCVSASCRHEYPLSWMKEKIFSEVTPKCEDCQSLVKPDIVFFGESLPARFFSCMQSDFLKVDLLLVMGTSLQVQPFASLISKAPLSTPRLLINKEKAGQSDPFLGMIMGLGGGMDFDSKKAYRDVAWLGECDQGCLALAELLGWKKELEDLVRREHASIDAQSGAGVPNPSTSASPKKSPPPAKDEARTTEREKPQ

[2] = target: T1, NAD-dependent protein deacetylase sirtuin-2; experiment: Inhibition of recombinant human SIRT2 deacylation activity expressed in Escherichia coli Rosetta2 using Fluor-de-Lys-SIRT2 deacetylase substrate measured after 2 hrs by fluorescence assay
[3] = target: T2, NAD-dependent protein deacetylase sirtuin-1 (Homo sapiens, UniProt Q96EB6); experiment: Inhibition of recombinant human C-terminal His6-tagged SIRT1 (Met1 to Ser747 residues) defatty-acylase activity expressed in Escherichia coli using SFP3 as substrate measured at 5 mins interval for 60 mins in presence of NAD+ by fluorescence assay
T2 sequence (Q96EB6 whole entry): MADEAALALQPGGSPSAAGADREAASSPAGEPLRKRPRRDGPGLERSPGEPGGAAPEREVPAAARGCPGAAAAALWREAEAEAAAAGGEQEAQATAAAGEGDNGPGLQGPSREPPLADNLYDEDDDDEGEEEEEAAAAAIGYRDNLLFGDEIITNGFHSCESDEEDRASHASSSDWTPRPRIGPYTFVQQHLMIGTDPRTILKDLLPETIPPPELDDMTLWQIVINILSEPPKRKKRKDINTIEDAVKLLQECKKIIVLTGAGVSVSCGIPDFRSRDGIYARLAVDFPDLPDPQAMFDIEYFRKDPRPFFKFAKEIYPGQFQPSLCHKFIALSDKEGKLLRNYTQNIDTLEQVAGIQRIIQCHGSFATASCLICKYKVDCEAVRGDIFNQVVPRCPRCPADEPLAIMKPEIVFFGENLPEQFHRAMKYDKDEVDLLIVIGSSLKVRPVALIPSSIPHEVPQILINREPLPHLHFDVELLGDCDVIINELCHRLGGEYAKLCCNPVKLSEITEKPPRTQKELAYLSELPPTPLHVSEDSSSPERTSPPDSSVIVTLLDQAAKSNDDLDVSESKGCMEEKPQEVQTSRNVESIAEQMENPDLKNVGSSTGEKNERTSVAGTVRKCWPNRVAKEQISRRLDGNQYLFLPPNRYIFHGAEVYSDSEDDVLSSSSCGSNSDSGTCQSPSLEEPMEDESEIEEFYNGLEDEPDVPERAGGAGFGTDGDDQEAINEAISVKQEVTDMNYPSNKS

[4] = target: T1, NAD-dependent protein deacetylase sirtuin-2; experiment: Inhibition of recombinant human SIRT2 demyristoylase activity using p53(Myr)-AMC as substrate measured after 3 hrs in presence of NAD+ and trypsin by fluorescence assay
[5] = target: T3, NAD-dependent protein deacetylase sirtuin-3, mitochondrial (Homo sapiens, UniProt Q9NTG7); experiment: Inhibition of recombinant human SIRT3 (118 to 399 residues) defatty-acylase activity expressed in Escherichia coli using SFP3 as substrate measured at 5 mins interval for 60 mins in presence of NAD+ by fluorescence assay
T3 sequence (Q9NTG7 whole entry): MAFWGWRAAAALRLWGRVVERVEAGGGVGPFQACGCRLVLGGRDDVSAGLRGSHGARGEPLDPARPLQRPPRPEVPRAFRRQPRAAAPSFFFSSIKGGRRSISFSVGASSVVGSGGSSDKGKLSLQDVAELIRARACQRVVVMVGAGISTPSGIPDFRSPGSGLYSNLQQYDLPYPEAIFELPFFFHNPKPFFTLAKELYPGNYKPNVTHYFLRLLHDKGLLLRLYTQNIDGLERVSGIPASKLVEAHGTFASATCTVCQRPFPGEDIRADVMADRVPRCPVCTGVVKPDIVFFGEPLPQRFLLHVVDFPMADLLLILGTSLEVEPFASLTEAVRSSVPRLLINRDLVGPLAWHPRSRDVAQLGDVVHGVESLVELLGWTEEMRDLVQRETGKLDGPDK

[6] = target: T1, NAD-dependent protein deacetylase sirtuin-2; experiment: Inhibition of recombinant human SIRT2 defatty-acylase activity using SFP3 as substrate measured at 5 mins interval for 60 mins in presence of NAD+ by fluorescence assay

## CC[C@H](C)[C@H](NC(=O)[C@H](CCCNC(=N)N)NC(C)=O)C(=O)N[C@@H](CCCCNC(=O)C(F)(F)F)C(=O)N[C@@H](CCCNC(=N)N)C(=O)N[C@@H](Cc1ccc(O)cc1)C(N)=O (Ac-RIK(Tfa)RY-NH2)
[1]
  IC50: 67 nM
[2]
  IC50: 31 nM
[3]
  IC50: > 2000 nM
[4]
  IC50: 1100 nM
[5]
  IC50: 540 nM
[6]
  IC50: 320 nM

Reference: ChEMBL document CHEMBL4304758, “Development of Peptide-Based Sirtuin Defatty-Acylase Inhibitors Identified by the Fluorescence Probe, SFP3, That Can Efficiently Measure Defatty-Acylase Activity of Sirtuin” (J Med Chem, 2019)
